Experiment [1] addresses Transcriptional enhancer factor TEF-4 (Homo sapiens) (UniProt Q15562). In words: Binding affinity to recombinant TEAD2 (unknown origin) assessed as increase in thermal stability by thermal shift assay.
In experiment [2] the target is Transcriptional enhancer factor TEF-1 (Homo sapiens) (UniProt P28347). The experiment in a line: Binding affinity to recombinant TEAD1 (unknown origin) assessed as increase in thermal stability by thermal shift assay.
Experiment [3] concerns the target Transcriptional enhancer factor TEF-4 (Homo sapiens) (UniProt Q15562). In words: Thermal stabilization of C-terminal human TEAD2 (217 to 447 residues) assessed as change in melting temperature by thermal shift assay.

Sequence of Transcriptional enhancer factor TEF-4 (Homo sapiens) (Q15562 whole entry, the tested form may be a part): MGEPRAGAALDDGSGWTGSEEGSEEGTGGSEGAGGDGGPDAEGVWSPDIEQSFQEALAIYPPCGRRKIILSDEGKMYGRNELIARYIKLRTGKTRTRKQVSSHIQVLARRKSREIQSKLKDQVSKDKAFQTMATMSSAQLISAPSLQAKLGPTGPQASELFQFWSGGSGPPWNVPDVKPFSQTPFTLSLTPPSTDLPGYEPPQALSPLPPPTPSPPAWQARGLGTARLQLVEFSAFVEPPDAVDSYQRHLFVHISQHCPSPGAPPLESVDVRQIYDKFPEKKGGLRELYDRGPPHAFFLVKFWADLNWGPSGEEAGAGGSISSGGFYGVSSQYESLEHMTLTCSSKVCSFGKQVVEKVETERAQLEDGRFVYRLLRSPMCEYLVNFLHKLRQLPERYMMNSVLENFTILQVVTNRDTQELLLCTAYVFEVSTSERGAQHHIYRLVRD
Sequence of Transcriptional enhancer factor TEF-1 (Homo sapiens) (P28347 whole entry, the tested form may be a part): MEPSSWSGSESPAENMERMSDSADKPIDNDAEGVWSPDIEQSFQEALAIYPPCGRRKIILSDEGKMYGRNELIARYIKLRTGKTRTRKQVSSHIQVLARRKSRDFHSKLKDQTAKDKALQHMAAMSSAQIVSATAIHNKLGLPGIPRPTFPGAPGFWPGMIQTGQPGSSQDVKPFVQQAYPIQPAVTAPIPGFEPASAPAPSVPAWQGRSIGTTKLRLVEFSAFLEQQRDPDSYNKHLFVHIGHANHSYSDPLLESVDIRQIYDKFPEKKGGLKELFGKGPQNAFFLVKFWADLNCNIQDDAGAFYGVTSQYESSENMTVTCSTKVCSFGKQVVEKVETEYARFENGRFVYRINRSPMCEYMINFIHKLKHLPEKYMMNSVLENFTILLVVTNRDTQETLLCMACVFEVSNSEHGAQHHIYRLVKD

Take `CNS(=O)(=O)c1ccc(Nc2ccc(C(F)(F)F)cc2)c(-c2cn(C)cn2)c1`: the deltaT was 4.2 °C in experiment [1] and 8.3 °C in experiment [2]. As to `Nc1cccc(-c2cc[nH]n2)c1`, the shift in melting temperature (ΔTm) in experiment [3] was 0.95 °C.

What is called ΔTm is the shift of the melting midpoint relative to a reference.
